From patent publication US6686478B2, “Thienylsulphonylamino(thio)carbonyl compounds” (Bayer Aktiengesellschaft, priority 1996, dated 2004)

Key:
Sinapis [1] = assay: Post-emergence test/greenhouse; type: in vivo; conditions: greenhouse, 250 g of ai/ha, after three weeks, 0%=no effect, 100%=total destruction
Procedure: (§1) Solvent: 5 parts by weight of acetone
(§2) Emulsifier: 1 part by weight of alkylaryl polyglycol ether
(§3) To produce a suitable preparation of active compound, 1 part by weight of active compound is mixed with the stated amount of solvent, the stated amount of emulsifier is added and the concentrate is diluted with water to the desired concentration.
(§4) Test plants which have a height of 5-15 cm are sprayed with the preparation of the active compound in such a way as to apply the particular amounts of active compound desired per unit area. The concentration of the spray liquor is chosen so that the amounts of active compound desired in each case are applied in 1000 l of water/ha.
(§5) After three weeks, the degree of damage to the plants is rated in % damage in comparison with the development of the untreated control.
(§6) 0%=no effect (like untreated control)

Amaranthus [2] = assay: Post-emergence test/greenhouse; type: in vivo; conditions: greenhouse, 250 g of ai/ha, after three weeks, 0%=no effect, 100%=total destruction
Procedure: as §1, §2, §3, §4, §5, §6

Maize [3] = assay: Post-emergence test/greenhouse; type: in vivo; conditions: greenhouse, 250 g of ai/ha, after three weeks, 0%=no effect, 100%=total destruction
Procedure: as §1, §2, §3, §4, §5, §6

Setaria [4] = assay: Post-emergence test/greenhouse; type: in vivo; conditions: greenhouse, 250 g of ai/ha, after three weeks, 0%=no effect, 100%=total destruction
Procedure: as §1, §2, §3, §4, §5, §6

weeds [5] = assay: Post-emergence test, summary for weeds; type: in vivo; conditions: result in words
Procedure: as §1, §2, §3, §4, §5, §6

Abutilon [6] = assay: Post-emergence test/greenhouse; type: in vivo; conditions: greenhouse, 250 g of ai/ha, after three weeks, 0%=no effect, 100%=total destruction
Procedure: as §1, §2, §3, §4, §5, §6

weeds [7] = assay: Pre-emergence test, summary for weeds; type: in vivo; conditions: result in words
Procedure: as §1, §2, §3
(§7) Seeds of the test plants are sown in normal soil. After about 24 hours, the soil is watered with the preparation of the active compound. Advantageously, the amount of water per unit area is kept constant. The active compound concentration in the preparation is not important, only the active compound application rate per unit area is critical.
(§8) After three weeks, the degree of damage to the plants is rated in % damage in comparison with the development of the untreated control. The figures denote:
as §6

Chenopodium = assay: Pre-emergence test/greenhouse; type: in vivo; conditions: greenhouse, 125 g of ai./ha, after three weeks, 0%=no effect, 100%=total destruction
Procedure: as §1, §2, §3, §7, §8, §6

Lolium = assay: Pre-emergence test/greenhouse; type: in vivo; conditions: greenhouse, 125 g of ai./ha, after three weeks, 0%=no effect, 100%=total destruction
Procedure: as §1, §2, §3, §7, §8, §6

Solanum = assay: Pre-emergence test/greenhouse; type: in vivo; conditions: greenhouse, 125 g of ai./ha, after three weeks, 0%=no effect, 100%=total destruction
Procedure: as §1, §2, §3, §7, §8, §6

Bromus = assay: Pre-emergence test/greenhouse; type: in vivo; conditions: greenhouse, 125 g of ai./ha, after three weeks, 0%=no effect, 100%=total destruction
Procedure: as §1, §2, §3, §7, §8, §6

Cyperus = assay: Pre-emergence test/greenhouse; type: in vivo; conditions: greenhouse, 125 g of ai./ha, after three weeks, 0%=no effect, 100%=total destruction
Procedure: as §1, §2, §3, §7, §8, §6

Matricaria = assay: Pre-emergence test/greenhouse; type: in vivo; conditions: greenhouse, 125 g of ai./ha, after three weeks, 0%=no effect, 100%=total destruction
Procedure: as §1, §2, §3, §7, §8, §6

Setaria [8] = assay: Pre-emergence test/greenhouse; type: in vivo; conditions: greenhouse, 125 g of ai./ha, after three weeks, 0%=no effect, 100%=total destruction
Procedure: as §1, §2, §3, §7, §8, §6

Maize [9] = assay: Pre-emergence test/greenhouse; type: in vivo; conditions: greenhouse, 125 g of ai./ha, after three weeks, 0%=no effect, 100%=total destruction
Procedure: as §1, §2, §3, §7, §8, §6

Wheat = assay: Pre-emergence test/greenhouse; type: in vivo; conditions: greenhouse, 125 g of ai./ha, after three weeks, 0%=no effect, 100%=total destruction
Procedure: as §1, §2, §3, §7, §8, §6

Sinapis [10] = assay: Pre-emergence test/greenhouse; type: in vivo; conditions: greenhouse, 250 g of ai./ha, after three weeks, 0%=no effect, 100%=total destruction
Procedure: as §1, §2, §3, §7, §8, §6

Abutilon [11] = assay: Pre-emergence test/greenhouse; type: in vivo; conditions: greenhouse, 250 g of ai./ha, after three weeks, 0%=no effect, 100%=total destruction
Procedure: as §1, §2, §3, §7, §8, §6

Amaranthus [12] = assay: Pre-emergence test/greenhouse; type: in vivo; conditions: greenhouse, 250 g of ai./ha, after three weeks, 0%=no effect, 100%=total destruction
Procedure: as §1, §2, §3, §7, §8, §6

Alopecurus = assay: Pre-emergence test/greenhouse; type: in vivo; conditions: greenhouse, 250 g of ai./ha, after three weeks, 0%=no effect, 100%=total destruction
Procedure: as §1, §2, §3, §7, §8, §6

Xanthium = assay: Pre-emergence test/greenhouse; type: in vivo; conditions: greenhouse, 250 g of ai./ha, after three weeks, 0%=no effect, 100%=total destruction
Procedure: as §1, §2, §3, §7, §8, §6

Structure (SMILES)	degree of damage to the plants, Sinapis (Sinapis [1])	degree of damage to the plants, Amaranthus (Amaranthus [2])	degree of damage to the plants, Setaria (Setaria [4])	activity against weeds (weeds [5])	activity against weeds (weeds [7])	degree of damage to the plants, Chenopodium (Chenopodium)	degree of damage to the plants, Lolium (Lolium)	degree of damage to the plants, Solanum (Solanum)	degree of damage to the plants, Bromus (Bromus)	degree of damage to the plants, Cyperus (Cyperus)	degree of damage to the plants, Matricaria (Matricaria)	degree of damage to the plants, Setaria (Setaria [8])	other results
Cc1csc(C)c1S(=O)(=O)NC(=O)n1nc(OC(C)C)n(C)c1=O [Example 6]	100%	90%	80%	very strong activity	–	–	–	–	–	–	–	–	degree of damage to the plants, Maize (Maize [3]): 10%
CCOc1nn(C(=O)NS(=O)(=O)c2c(C)csc2C)c(=O)n1CC [Example 13]	100%	100%	80%	very strong activity	–	–	–	–	–	–	–	–	degree of damage to the plants, Abutilon (Abutilon [6]): 80%
COc1nn(C(=O)NS(=O)(=O)c2c(C)csc2C)c(=O)n1C [Example 11]	–	–	–	–	very strong activity	95%	100%	95%	100%	100%	100%	100%	–
CCc1nn(C(=O)NS(=O)(=O)c2c(C)csc2C)c(=O)n1C [Example 3]	–	–	–	–	very strong activity	100%	100%	100%	100%	100%	100%	100%	degree of damage to the plants, Maize (Maize [9]): 5%
CSc1nn(C(=O)NS(=O)(=O)c2c(C)csc2C)c(=O)n1C [Example 4]	–	–	–	–	very strong activity	90%	100%	80%	95%	95%	90%	100%	degree of damage to the plants, Maize (Maize [9]): 0%; degree of damage to the plants, Wheat (Wheat): 0%
Cc1nc(C(=O)NS(=O)(=O)c2c(C)csc2C)no1 [Example 2, N-(2,4-dimethyl-thien-3-yl-sulphonyl)-5-methyl-1,2,4-oxadiazol-3-carboxamide]	–	–	–	–	–	–	–	–	–	–	–	–	melting point: 164 °C
C#CCSc1nn(C(=O)NS(=O)(=O)c2c(C)csc2C)c(=O)n1C [Example 14]	95%	95%	90%	very strong activity	–	–	–	–	–	–	–	–	degree of damage to the plants, Maize (Maize [3]): 10%
CCOc1nn(C(=O)NS(=O)(=O)c2c(C)csc2C)c(=O)n1C [Example 1, 5-ethoxy-4-methyl-2-(2,4-dimethyl-thien-3-yl-sulphonylaminocarbonyl)-2,4-dihydro-3H-1,2,4-triazol-3-one]	–	–	–	–	very strong activity	100%	100%	100%	100%	95%	100%	100%	melting point: 158 °C; degree of damage to the plants, Wheat (Wheat): 0%
CCOc1nn(C(=O)NS(=O)(=O)c2c(C)csc2C)c(=O)n1C1CC1 [Example 12]	–	–	–	–	very strong activity	–	–	–	–	–	–	–	degree of damage to the plants, Sinapis (Sinapis [10]): 95%; degree of damage to the plants, Abutilon (Abutilon [11]): 90%; degree of damage to the plants, Amaranthus (Amaranthus [12]): 90%; degree of damage to the plants, Alopecurus (Alopecurus): 70%
CCCOc1nn(C(=O)NS(=O)(=O)c2c(C)csc2C)c(=O)n1C [Example 5]	–	–	–	–	very strong activity	–	–	–	–	–	–	–	degree of damage to the plants, Sinapis (Sinapis [10]): 95%; degree of damage to the plants, Abutilon (Abutilon [11]): 90%; degree of damage to the plants, Amaranthus (Amaranthus [12]): 90%; degree of damage to the plants, Alopecurus (Alopecurus): 70%; degree of damage to the plants, Xanthium (Xanthium): 90%
